Measured values: patent EP3250181B1, “MINOXIDIL-BASED PHARMACEUTICAL FORMULATION FOR THE TOPICAL USE AND KIT THEREOF” (Farmalabor S.r.l., priority 2014, dated 2016)

Columns and labels:
[1] = Stability, first study: real storage conditions, HPLC; conditions: formulation A, room temperature, both in the presence and in the absence of light
[2] = Stability, second study: cold-warm cycle in climate room for 60 hours; conditions: formulation A, 4°C/25°C/40°C cycle, dark or UV/Vis light

## Nc1cc(N2CCCCC2)nc(N)[n+]1[O-] [Minoxidil]
[1]
  stability of Minoxidil in the gel: stable in the gel for 5 weeks
[2]
  chemical stability after cold-heat shock: chemical stability of Minoxidil into the gel also after a cold-heat shock
